Results published in patent publication US20250011311A1, “AMIDO HETEROAROMATIC COMPOUNDS” (AstraZeneca AB, priority 2022, published 2025).

How the values were obtained:
[1] = molecular target: recombinant 17bHSD13 (N2-K300) (Homo sapiens (Human), UniProt Q7Z5P4); test: In Vitro 17bHSD13 Enzyme Assay; assay type: biochemical; details: 80 nM 17bHSD13, 0.5 mM NAD, 20 μM Estradiol, 2.5 h; estradiol to estrone by LC-MS/MS
Procedure, shortened: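 Human 17bHSD13 (N2-K300, 80 nM) with 0.5 mM NAD, 20 μM estradiol and varied compound in 50 mM Tris-Cl pH 7.4, 5 mM EDTA, 0.01% DDM. Estrone/(estrone+estradiol) ratio read by LC-MS/MS (APCI, positive MRM). Inhibition normalised to DMSO and a known-inhibitor control; IC50 from curve fit.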

[2] = Metabolism Study: in vitro study to identify metabolites; assay type: in vitro ADME
Excerpt: Metabolites 1 and 2 were subsequently synthesised and characterised.

[3] = molecular target: over expressed HSD17β13 in HEK293S cells (Homo sapiens (Human), UniProt Q7Z5P4); test: In Vitro 17bHSD13 Cell Assay; assay type: cell-based; details: HEK293S cells over expressing HSD17β13; estradiol to estrone conversion, 18 h, LC-MS/MS; read-out: 17bHSD1713 Cell assay IC50
Procedure, shortened: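 HEK293S cells overexpressing HSD17β13 convert estradiol to estrone; product read by LC-MS/MS (APCI, positive MRM) as AUC ratio estrone/(estrone+estradiol). Effect normalised between DMSO and maximal inhibition by a known inhibitor control; IC50 from curve fit.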

[4] = molecular target: human CB1 receptor expressed in transfected CHO cells (Homo sapiens (Human), UniProt P21554); test: Assay C: CB1 Agonism Assay; assay type: cell-based; details: agonist activity, cAMP HTRF, read-out: Assay C: CB1 Hu CHO cAMP TRF Ag CR GMean EC50
Protocol: Assay C: CB1 Agonism Assay
Evaluation of the agonist activity of compounds at the human CB1 receptor expressed in transfected CHO cells, determined by measuring their effects on cAMP modulation using the HTRF detection method.
Thereafter, the adenylyl cyclase activator NKH 477 is added at a final concentration of 3 μM. Following 20 min incubation at 37° C., the cells are lysed and the fluorescence acceptor (D2-labeled cAMP) and fluorescence donor (anti-cAMP antibody labeled with europium cryptate) are added. After 60 min at room temperature, the fluorescence transfer is measured at gex=337 nm and gem=620 and 665 nm using a microplate reader (RUBYSTAR, BMG). The cAMP concentration is determined by dividing the signal measured at 665 nm by that measured at 620 nm (ratio). The results are expressed as a percent of the control response to 30 nM CP 55940. The standard reference agonist is CP 55940, which is tested in each experiment at several concentrations to generate a concentration-response curve from which its EC50 value is calculated.
Bibliographic reference Felder, C. C. et al., (1995), Comparison of the pharmacology and signal transduction of the human cannabinoid CB1 and CB2 receptors, Mol. Pharmacol., 48: 443, which is incorporated herein by reference.

Chain of human CB1 receptor expressed in transfected CHO cells (P21554 whole entry): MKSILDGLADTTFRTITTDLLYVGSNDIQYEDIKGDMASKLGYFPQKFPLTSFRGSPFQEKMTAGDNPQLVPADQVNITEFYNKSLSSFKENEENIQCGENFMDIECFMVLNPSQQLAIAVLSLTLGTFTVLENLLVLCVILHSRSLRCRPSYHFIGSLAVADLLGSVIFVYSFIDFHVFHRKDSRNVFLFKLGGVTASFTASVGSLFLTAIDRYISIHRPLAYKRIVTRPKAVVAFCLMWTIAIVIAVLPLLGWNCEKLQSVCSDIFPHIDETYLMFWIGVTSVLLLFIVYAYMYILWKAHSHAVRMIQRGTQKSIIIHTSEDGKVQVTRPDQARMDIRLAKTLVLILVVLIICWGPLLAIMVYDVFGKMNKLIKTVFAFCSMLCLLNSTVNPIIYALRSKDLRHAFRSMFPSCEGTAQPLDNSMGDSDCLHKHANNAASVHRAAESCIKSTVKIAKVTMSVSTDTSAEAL
Chain of recombinant 17bHSD13 (N2-K300) (Q7Z5P4 2-300): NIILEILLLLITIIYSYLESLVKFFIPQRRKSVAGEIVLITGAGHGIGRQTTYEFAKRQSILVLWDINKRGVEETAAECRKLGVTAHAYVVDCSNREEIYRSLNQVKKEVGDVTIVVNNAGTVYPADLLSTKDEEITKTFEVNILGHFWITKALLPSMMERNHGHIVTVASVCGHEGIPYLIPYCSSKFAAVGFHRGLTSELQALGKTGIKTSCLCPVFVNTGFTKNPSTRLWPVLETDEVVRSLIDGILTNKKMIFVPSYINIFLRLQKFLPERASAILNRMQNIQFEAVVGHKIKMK
Chain of over expressed HSD17β13 in HEK293S cells (Q7Z5P4 20-300): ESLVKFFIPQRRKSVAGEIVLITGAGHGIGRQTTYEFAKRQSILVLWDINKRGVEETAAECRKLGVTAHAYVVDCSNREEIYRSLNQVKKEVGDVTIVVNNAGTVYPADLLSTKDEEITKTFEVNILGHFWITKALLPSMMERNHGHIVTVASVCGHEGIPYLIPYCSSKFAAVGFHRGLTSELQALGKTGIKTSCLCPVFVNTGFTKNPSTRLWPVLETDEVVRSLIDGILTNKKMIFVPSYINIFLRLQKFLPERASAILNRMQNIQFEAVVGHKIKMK

## C[C@@H]1CN(C(=O)c2noc(-c3cc(F)c(F)c(O)c3F)n2)C[C@H](C)O1 [Example 87, ((2R,6S)-2,6-Dimethylmorpholino)(5-(2,4,5-trifluoro-3-hydroxyphenyl)-1,2,4-oxadiazol-3-yl)methanone]
[1]
  IC50: 285 nM
[2]
  metabolites identified: yielded Metabolite 1 and Metabolite 2
[3]
  IC50: 60 nM
[4]
  EC50: 46 µM
